From ChEMBL document CHEMBL4665834 (J Med Chem, 2020)
≈ marks a conversion by molar mass, not a printed value.

How the values were obtained:
[1] = Volume of distribution at steady state in Wistar rat at 1 mg/kg, iv administered as bolus dose or 3 mg/kg, po administered via gavage by LC-MS/MS analysis; assay type: ADME, organism-based; conditions: in vivo, read-out: Vdss
[2] = Terminal half life in Wistar rat at 1 mg/kg, iv administered as bolus dose by LC-MS/MS analysis; assay type: ADME, organism-based; conditions: in vivo, read-out: beta t1/2 (converted)
[3] = biological target: T1, Prostaglandin F2-alpha receptor (Rattus norvegicus, UniProt P43118); test: Antagonist activity at rat FPR stably expressed in CHO cells assessed as inhibition of PGF2alpha-induced calcium flux preincubated for 10 mins followed by PGF2alpha stimulation and measured for 120 secs by fluo-8 AM dye based fluorescence assay; assay type: cell-based
[4] = biological target: T2, Prostaglandin F2-alpha receptor (Mus musculus, UniProt P43117); test: Antagonist activity at FPR in mouse NIH3T3 cells assessed as inhibition of PGF2alpha-induced cytokine induced neutrophil attracting chemokine production measured after 24 hrs by Bio-Rad assay; assay type: cell-based
[5] = biological target: T2, Prostaglandin F2-alpha receptor; test: Antagonist activity at FPR in mouse NIH3T3 cells assessed as inhibition of PGF2alpha-induced MCP1 production measured after 24 hrs by Bio-Rad assay; assay type: cell-based
[6] = Lipophilicity, log D of compound at pH 7.5 by HPLC analysis; conditions: buffer
[7] = biological target: Prostaglandin E2 receptor EP3 subtype (Homo sapiens, UniProt P43115); test: Displacement of [3H]prostaglandin E2 from full-length recombinant human EP3 receptor expressed in HEK293 cell membranes measured after 120 mins by scintillation counting method
[8] = Protein binding in pooled human plasma assessed as unbound fraction incubated for 6 hrs by LC-MS/MS analysis based equilibrium dialysis method; assay type: ADME, cell-free
[9] = Volume of distribution at steady state in Beagle dog at 0.5 mg/kg, iv administered as 15 mins infusion or 1 mg/kg, po administered via gavage by LC-MS/MS analysis; assay type: ADME, organism-based, Canis lupus familiaris; conditions: in vivo, read-out: Vdss
[10] = Drug metabolism in human hepatocytes assessed as oxidation at the pyrrolidine ring at 1 uM measured after 1 to 4 hrs by LC-MS/MS analysis; assay type: ADME, cell-based, Hepatocyte; conditions: time 1-4 hrs
[11] = Terminal half life in Beagle dog at 0.5 mg/kg, iv administered as 15 mins infusion by LC-MS/MS analysis; assay type: ADME, organism-based, Canis lupus familiaris; conditions: in vivo, read-out: beta t1/2 (converted)
[12] = Clearance in Balb/c mouse at 1 mg/kg, iv administered as bolus dose or 3 mg/kg, po administered via gavage by LC-MS/MS analysis; assay type: ADME, organism-based; conditions: in vivo
[13] = Oral bioavailability in Wistar rat at 1 to 3 mg/kg administered via gavage using EtOH/PEG400/H2O 10/40/50 formulation by LC-MS/MS analysis; assay type: ADME, organism-based; conditions: in vivo, dose 1-3 mg/kg
[14] = Drug metabolism in human hepatocytes assessed as formation of hydroxylated and ring-opened pyrrolidine derivative at 1 uM measured after 1 to 4 hrs by LC-MS/MS analysis; assay type: ADME, cell-based, Hepatocyte; conditions: time 1-4 hrs
[15] = biological target: Prostacyclin receptor (Homo sapiens, UniProt P43119); test: Displacement of [3H]PGD2 from full-length recombinant human IP receptor expressed in HEK293 cell membranes measured after 60 mins by scintillation counting method
[16] = biological target: Thromboxane A2 receptor (Homo sapiens, UniProt P21731); test: Antagonist activity at recombinant full-length human TP receptor expressed in HEK293 cells assessed as inhibition of U-44069-induced response measured after 30 mins by TR-FRET assay; assay type: cell-based
[17] = Oral bioavailability in Beagle dog at 1 mg/kg administered via gavage by LC-MS/MS analysis; assay type: ADME, organism-based, Canis lupus familiaris; conditions: in vivo
[18] = biological target: Prostaglandin E2 receptor EP1 subtype (Homo sapiens, UniProt P34995); test: Displacement of [3H]prostaglandin E2 from full-length recombinant human EP1 receptor expressed in HEK293 cell membranes measured after 60 mins by scintillation counting method
[19] = Toxicity in Wistar rat up to 300 mg/kg/day, po administered for 14 days; assay type: organism-based; conditions: in vivo, 336 h, time 14 day
[20] = Oral bioavailability in Balb/c mouse at 3 mg/kg administered via gavage by LC-MS/MS analysis; assay type: ADME, organism-based; conditions: in vivo
[21] = Clearance in Beagle dog at 0.5 mg/kg, iv administered as 15 mins infusion or 1 mg/kg, po administered via gavage by LC-MS/MS analysis; assay type: ADME, organism-based, Canis lupus familiaris; conditions: in vivo
[22] = Apparent permeability in human Caco-2 cells measured after 2 hrs by HPLC analysis; assay type: ADME, cell-based
[23] = Maximum oral bioavailability in dog hepatocytes based well stirred liver model at 1 uM measured after 2 to 90 mins by LC-MS/MS analysis; assay type: ADME, Canis lupus familiaris, Hepatocyte; conditions: time 2-90 min, read-out: Fmax
[24] = Drug metabolism in dog hepatocytes assessed as glucuronidation at 1 uM measured after 1 to 4 hrs by LC-MS/MS analysis; assay type: ADME, cell-based, Canis lupus familiaris, Hepatocyte; conditions: time 1-4 hrs
[25] = biological target: Prostaglandin D2 receptor 2 (Homo sapiens, UniProt Q9Y5Y4); test: Displacement of [3H]PGD2 from full-length recombinant human CRTH2 receptor expressed in CHOK1 cell membranes measured after 120 mins by scintillation counting method; parameters: species or system CHO-K1
[26] = biological target: Cytochrome P450 2C8 (Homo sapiens, UniProt P10632); test: Inhibition of CYP2C8 in human liver microsomes using amodiaquine as substrate incubated for 15 mins in presence of NADPH generating system by LC-MS/MS analysis; assay type: ADME
[27] = biological target: T1, Prostaglandin F2-alpha receptor; test: Antagonist activity at FPR in Wistar rat assessed as inhibition of PGF2alpha-induced uterus contraction; assay type: tissue-based
[28] = Maximum oral bioavailability in rat hepatocytes based well stirred liver model at 1 uM measured after 2 to 90 mins by LC-MS/MS analysis; assay type: ADME, Hepatocyte; conditions: time 2-90 min, read-out: Fmax
[29] = biological target: Prostaglandin E2 receptor EP2 subtype (Homo sapiens, UniProt P43116); test: Displacement of [3H]prostaglandin E2 from full-length recombinant human EP2 receptor expressed in HEK293 cell membranes measured after 120 mins by scintillation counting method
[30] = Clearance in Wistar rat at 1 mg/kg, iv administered as bolus dose or 3 mg/kg, po administered via gavage by LC-MS/MS analysis; assay type: ADME, organism-based; conditions: in vivo
[31] = Protein binding in pooled rat plasma assessed as unbound fraction incubated for 6 hrs by LC-MS/MS analysis based equilibrium dialysis method; assay type: ADME, cell-free
[32] = biological target: Cytochrome P450 3A4 (Homo sapiens, UniProt P08684); test: Inhibition of CYP3A4 in human liver microsomes using midazolam as substrate incubated for 10 mins in presence of NADPH generating system by LC-MS/MS analysis
[33] = Volume of distribution at steady state in Balb/c mouse at 1 mg/kg, iv administered as bolus dose or 3 mg/kg, po administered via gavage by LC-MS/MS analysis; assay type: ADME, organism-based; conditions: in vivo, read-out: Vdss
[34] = Solubility of compound in 0.1 M HCl using crystalline form of sample; assay type: physicochemical
[35] = Oral bioavailability in Wistar rat at 3 mg/kg administered via gavage by LC-MS/MS analysis; assay type: ADME, organism-based; conditions: in vivo
[36] = biological target: Prostaglandin D2 receptor (Homo sapiens, UniProt Q13258); test: Displacement of [3H]PGD2 from full-length recombinant human DP1 receptor expressed in Chem-1 cell membranes measured after 120 mins by scintillation counting method
[37] = Drug metabolism in rat hepatocytes assessed as oxidation at the pyrrolidine ring at 1 uM measured after 1 to 4 hrs by LC-MS/MS analysis; assay type: ADME, cell-based, Hepatocyte; conditions: time 1-4 hrs

T2 sequence (P43117 whole entry): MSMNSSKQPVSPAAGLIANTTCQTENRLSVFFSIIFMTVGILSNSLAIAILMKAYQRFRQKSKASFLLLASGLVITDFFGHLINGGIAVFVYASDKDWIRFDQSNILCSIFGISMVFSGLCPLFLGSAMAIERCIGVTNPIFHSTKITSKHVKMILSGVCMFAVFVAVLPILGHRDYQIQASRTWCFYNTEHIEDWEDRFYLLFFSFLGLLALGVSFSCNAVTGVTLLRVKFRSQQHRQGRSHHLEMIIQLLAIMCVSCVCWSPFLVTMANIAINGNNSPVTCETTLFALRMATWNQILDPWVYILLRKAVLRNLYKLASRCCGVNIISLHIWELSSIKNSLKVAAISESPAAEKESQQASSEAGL
T1 sequence (P43118 whole entry): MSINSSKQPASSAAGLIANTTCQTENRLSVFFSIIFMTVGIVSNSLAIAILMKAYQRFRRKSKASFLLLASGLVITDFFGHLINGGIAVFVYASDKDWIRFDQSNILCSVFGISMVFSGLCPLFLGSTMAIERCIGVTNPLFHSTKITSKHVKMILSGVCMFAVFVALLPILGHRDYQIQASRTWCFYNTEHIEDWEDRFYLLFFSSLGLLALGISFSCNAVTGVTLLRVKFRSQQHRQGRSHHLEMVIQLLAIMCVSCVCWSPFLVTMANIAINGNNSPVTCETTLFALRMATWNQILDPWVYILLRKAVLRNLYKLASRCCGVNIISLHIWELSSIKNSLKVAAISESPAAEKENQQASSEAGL
Chain of Cytochrome P450 2C8 (P10632 whole entry): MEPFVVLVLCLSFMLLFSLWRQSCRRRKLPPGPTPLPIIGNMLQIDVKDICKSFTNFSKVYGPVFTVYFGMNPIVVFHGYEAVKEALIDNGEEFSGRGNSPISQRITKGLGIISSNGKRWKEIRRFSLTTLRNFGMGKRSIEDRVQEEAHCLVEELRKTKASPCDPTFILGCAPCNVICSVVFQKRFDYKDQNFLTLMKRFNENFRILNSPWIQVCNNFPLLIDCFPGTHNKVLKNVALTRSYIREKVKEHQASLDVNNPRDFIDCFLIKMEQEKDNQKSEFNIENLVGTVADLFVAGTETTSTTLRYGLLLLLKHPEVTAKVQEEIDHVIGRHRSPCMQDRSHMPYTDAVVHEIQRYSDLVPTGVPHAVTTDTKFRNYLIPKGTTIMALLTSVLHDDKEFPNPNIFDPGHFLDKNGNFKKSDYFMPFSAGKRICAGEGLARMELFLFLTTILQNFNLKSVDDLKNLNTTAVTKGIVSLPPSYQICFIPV
Chain of Prostaglandin D2 receptor (Q13258 whole entry): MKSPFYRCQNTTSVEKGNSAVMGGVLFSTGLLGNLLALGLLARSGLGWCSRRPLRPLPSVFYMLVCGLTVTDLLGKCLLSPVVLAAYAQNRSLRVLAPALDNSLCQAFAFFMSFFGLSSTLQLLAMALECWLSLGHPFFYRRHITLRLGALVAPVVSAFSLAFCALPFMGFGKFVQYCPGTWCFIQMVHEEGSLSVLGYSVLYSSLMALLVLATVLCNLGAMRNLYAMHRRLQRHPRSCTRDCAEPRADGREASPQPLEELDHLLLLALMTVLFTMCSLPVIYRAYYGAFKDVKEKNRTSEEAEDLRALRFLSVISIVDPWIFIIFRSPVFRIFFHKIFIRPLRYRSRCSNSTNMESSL
Chain of Cytochrome P450 3A4 (P08684 whole entry): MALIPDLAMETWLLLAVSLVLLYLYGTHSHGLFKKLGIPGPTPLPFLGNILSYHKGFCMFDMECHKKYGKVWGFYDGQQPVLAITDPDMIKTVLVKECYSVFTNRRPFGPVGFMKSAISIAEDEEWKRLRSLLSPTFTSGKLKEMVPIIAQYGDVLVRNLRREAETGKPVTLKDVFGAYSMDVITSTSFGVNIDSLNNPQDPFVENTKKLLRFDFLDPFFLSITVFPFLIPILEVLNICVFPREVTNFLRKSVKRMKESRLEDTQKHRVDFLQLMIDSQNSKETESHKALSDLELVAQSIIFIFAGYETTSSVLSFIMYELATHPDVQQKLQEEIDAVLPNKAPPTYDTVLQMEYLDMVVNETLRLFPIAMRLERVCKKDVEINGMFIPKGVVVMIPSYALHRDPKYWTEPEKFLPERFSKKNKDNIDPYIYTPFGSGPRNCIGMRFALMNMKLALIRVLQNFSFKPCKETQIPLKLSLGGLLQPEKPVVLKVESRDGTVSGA
Chain of Prostaglandin E2 receptor EP1 subtype (P34995 whole entry): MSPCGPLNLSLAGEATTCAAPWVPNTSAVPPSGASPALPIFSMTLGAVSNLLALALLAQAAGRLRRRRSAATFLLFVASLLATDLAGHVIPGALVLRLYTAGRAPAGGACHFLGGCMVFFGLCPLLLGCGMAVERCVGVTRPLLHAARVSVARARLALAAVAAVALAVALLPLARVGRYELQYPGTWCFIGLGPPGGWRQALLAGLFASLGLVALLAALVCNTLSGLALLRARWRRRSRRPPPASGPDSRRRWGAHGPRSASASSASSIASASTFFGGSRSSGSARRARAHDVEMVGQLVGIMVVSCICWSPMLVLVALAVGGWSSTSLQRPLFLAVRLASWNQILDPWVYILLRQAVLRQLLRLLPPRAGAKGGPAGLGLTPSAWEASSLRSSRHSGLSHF
Chain of Prostacyclin receptor (P43119 whole entry): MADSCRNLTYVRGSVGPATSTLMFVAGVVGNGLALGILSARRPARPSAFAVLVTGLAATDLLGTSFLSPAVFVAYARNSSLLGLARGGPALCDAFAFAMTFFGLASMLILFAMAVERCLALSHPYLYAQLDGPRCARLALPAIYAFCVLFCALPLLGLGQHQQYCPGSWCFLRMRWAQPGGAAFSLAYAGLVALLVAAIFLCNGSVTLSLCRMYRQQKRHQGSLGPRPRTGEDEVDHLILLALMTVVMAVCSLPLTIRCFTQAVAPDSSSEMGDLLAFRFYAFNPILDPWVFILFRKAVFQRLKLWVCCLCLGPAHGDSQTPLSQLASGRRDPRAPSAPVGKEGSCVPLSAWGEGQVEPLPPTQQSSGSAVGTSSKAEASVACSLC
Chain of Prostaglandin E2 receptor EP2 subtype (P43116 whole entry): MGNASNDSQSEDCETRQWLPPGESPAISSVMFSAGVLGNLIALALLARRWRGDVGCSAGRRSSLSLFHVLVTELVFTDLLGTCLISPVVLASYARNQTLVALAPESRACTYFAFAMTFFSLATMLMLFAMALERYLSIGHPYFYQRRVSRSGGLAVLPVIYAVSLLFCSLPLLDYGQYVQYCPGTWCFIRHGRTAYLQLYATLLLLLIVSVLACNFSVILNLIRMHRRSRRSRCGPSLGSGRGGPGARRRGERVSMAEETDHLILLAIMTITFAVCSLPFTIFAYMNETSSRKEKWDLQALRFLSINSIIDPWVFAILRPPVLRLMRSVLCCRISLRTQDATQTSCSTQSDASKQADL
Chain of Prostaglandin E2 receptor EP3 subtype (P43115 whole entry): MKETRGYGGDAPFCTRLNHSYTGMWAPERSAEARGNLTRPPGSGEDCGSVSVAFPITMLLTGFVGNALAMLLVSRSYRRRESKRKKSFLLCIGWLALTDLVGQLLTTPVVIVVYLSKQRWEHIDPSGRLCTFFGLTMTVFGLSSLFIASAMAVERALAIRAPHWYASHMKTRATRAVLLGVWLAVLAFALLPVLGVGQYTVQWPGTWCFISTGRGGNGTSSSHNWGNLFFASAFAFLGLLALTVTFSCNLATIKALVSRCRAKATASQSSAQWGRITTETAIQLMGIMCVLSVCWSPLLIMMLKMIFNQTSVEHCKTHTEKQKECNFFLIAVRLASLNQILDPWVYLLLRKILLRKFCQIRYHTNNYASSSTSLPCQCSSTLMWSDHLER
Chain of Thromboxane A2 receptor (P21731 whole entry): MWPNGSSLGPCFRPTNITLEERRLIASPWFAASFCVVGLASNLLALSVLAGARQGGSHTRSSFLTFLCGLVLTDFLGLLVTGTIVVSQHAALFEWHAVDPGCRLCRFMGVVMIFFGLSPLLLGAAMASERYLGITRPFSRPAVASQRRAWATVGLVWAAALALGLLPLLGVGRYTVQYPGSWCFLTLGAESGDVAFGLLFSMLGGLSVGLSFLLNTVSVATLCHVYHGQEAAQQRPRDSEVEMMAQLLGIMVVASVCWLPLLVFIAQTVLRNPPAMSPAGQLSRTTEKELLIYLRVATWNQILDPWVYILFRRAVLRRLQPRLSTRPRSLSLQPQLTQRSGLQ
Chain of Prostaglandin D2 receptor 2 (Q9Y5Y4 whole entry): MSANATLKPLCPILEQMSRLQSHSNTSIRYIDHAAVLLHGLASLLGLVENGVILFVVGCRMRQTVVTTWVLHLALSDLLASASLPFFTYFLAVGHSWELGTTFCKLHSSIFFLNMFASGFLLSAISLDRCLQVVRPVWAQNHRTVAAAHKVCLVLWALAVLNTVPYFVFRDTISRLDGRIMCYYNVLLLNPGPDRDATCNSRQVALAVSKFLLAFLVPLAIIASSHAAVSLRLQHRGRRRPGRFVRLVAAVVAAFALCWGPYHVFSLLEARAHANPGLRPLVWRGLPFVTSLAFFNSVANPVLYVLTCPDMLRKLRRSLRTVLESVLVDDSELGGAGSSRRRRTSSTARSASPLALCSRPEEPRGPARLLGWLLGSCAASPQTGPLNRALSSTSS

In the case of Cc1c(N2CCCC2)nc2ccc(Br)cc2c1C(=O)NC[C@H](CCC(=O)O)c1ccccc1Cl [BAY-6672], the Vd [1] is reported as 2.1 L/kg, the half-life [2] is reported as 228 min and the IC50 [3] is reported as 11 nM. The IC50 [4] was 12 nM, the IC50 [5] was 18 nM and the logD [6] was 2.3. The IC50 [7] was over 10 µM, the fraction unbound at 6 h [8] was under 0.01 and the Vd [9] was 1.8 L/kg. The Drug metabolism [10] was “Metabolite_Detected”, the half-life [11] was 840 min and the clearance [12] was 18.3 mL/min/kg. For the same compound, the bioavailability [13] was 91%, the Drug metabolism [14] was “Metabolite_Detected” and the IC50 [15] was over 10 µM. The IC50 [16] was 2200 nM, the bioavailability [17] was 45% and the IC50 [18] was over 10 µM. For the same compound, the Activity [19] was “Non-Toxic”, the bioavailability [20] was 94% and the clearance [21] was 13.3 mL/min/kg. For the same compound, the Papp at 2 h [22] was 26.7 ×10⁻⁶ cm/s, the Fh at 1 µM [23] was 18% and the Drug metabolism [24] was “Metabolite_Detected”. It also gave an IC50 [25] of over 10 µM, an IC50 [26] of over 20 µM and an IC50 [27] of 52 nM. It also gave a Fh at 1 µM [28] of 67%, an IC50 [29] of over 10 µM and a clearance [30] of 11.7 mL/min/kg. It also gave a fraction unbound at 6 h [31] of under 0.01, an IC50 [32] of over 20 µM and a Vd [33] of 2 L/kg. The solubility [34] was 440 µg/mL (≈ 808 µM), the bioavailability [35] was 91% and the IC50 [36] was over 10 µM. The Drug metabolism [37] was “Metabolite_Detected”.
